Patent US20160038532A1, “Treatment of Multiple Sclerosis With Combination of Laquinimod and Glatiramer Acetate” (TEVA PHARMACEUTICAL INDUSTRIES, LTD., priority 2011, published 2016)
Where “and” joins values, the source holds several entries; their conditions need not be identical. Equal entries are not always repeated. Marks after values point to notes of the source that are not given here.

Key:
[1] = tested on: MOG-induced EAE; test: MOG-induced EAE, laquinimod alone and with GA blocking (Example 2.1), clinical signs; assay type: in vivo, C57B1/6 mice; design: Mortality: concentration or dose not given beside the values
[2] = tested on: MOG-induced EAE; test: MOG-induced EAE with GA blocking and s.c. daily GA (Example 2.4); assay type: in vivo, C57B1 mice; design: key to MMS value / GMS value: clinical score per grading system; 1+ = sick, 5 = dead/killed; conditions: alone or + GA 250 mg/kg s.c. daily 10 d
Method: The C57B1 strain of mouse was selected, as it is an established EAE model.
Laquinimod was administered daily orally for 30 days at dose level of 5.0 mg/kg or 25.0 mg/kg.
Disease was induced in the mice by the injection of the encephalitogenic emulsion (MOG/CFA). Laquinimod was administered orally for 30 consecutive days from the initiation of the study.
(§1) EAE induction EAE was induced by injecting the encephalitogenic mixture (emulsion) consisting of MOG (150.0 μg/mouse). A volume of 0.2 ml of emulsion was injected subcutaneously into the flanks of the mice. Pertussis toxin was injected intraperitoneally on the day of induction and 48 hours later (total amount was 0300 μg/mouse in 0.2 ml dosage volume).
The emulsion (for groups 2 and 3 and groups 1 and 4 to 8) were made from equal parts of oil and liquid portions (1:1) in two syringes connected to each other with Leur lock, transferred to insulin syringe and 0.2 ml was injected to the right flank of each mouse. The dose of the MOG in all the groups (1 to 8) was 150 μg/mouse.
The test concentrations of laquinimod were prepared in purified water. For high dose (25.0 mg/kg) 2.5 mg/mL stock solution were prepared (groups #3, 6 and 8). The stock solutions were diluted 1:5 to yield 0.5 mg/mL for dose level of 5.0 mg/kg for groups 5 and 7. Laquinimod was administered to the respective groups by gavage at a volume of 0.2 ml/mouse.
(§2) Every day one tube was thawed and brought to RT.
Clinical signs Scaring of EAE clinical signs was started from Day 10 post EAE induction and was continued daily until Day 30. The clinical signs were recorded according to a grading system described in the table 11 below
(§3) mice having scores of 1 and above were considered sick. When the first clinical sign appeared all mice were given food soaked in water, which was spread on different places on the bedding of the cages. An animal which continued to have score 4 for three days was killed on humane grounds and given score 5 on the next day. For calculation purposes, the score of animals that were sacrificed or died was carried forward.
• The number of sick animals in each group were summed. • The incidence of disease was calculated as
• The number of dead or moribund animals in each group were summed. • The mortality of disease was calculated as
• The mean duration of disease expressed in days was calculated as
• The mean onset of disease expressed in days was calculated as
• The mean maximal score (MMS) of each group was calculated as
• The daily scores of each mouse in the test group were summed and the Individual mean daily score (IMS) was calculated as […]

[3] = tested on: MOG-induced EAE; test: MOG-induced EAE with GA blocking and s.c. daily GA (Example 2.5); assay type: in vivo, C57B1 mice; design: key to MMS value / GMS value: EAE clinical grade (Table 2); ≥1 = sick, 6 = dead/sacrificed
Method: The objective of this study was to test the suppressive effect of laquinimod alone and in combination with Glatiramer acetate in the EAE model in C57B1 mice. […] Laquinimod was administered orally at dose levels of 2.5 and 5.0 mg/kg.
EAE was induced in the mice by the injection of the encephalitogenic emulsion (MOG/CFA). Laquinimod was administered orally for 30 consecutive days.
as §1, with “[…]).” for “μg/mouse).”, “A” for “A volume of”, “ml” for “ml of”, “will be 0.150+0.150=0.300” for “was 0300”
Groups 1, 3-8: 45.9 mg MOG was diluted in […] Normal Saline (3.0 mg/ml MOG stock solution). 12.5 mL of 3.0 mg/ml stock solution was diluted in 12.5 mL Normal Saline to yield 1.5 mg MOG/mL. […] The emulsification was made from equal parts of oil and liquid portions (1:1) in two syringes connected to each other with Leur lock, transferred to insulin syringe and 0.2 ml was injected the right flank of each mouse. The dose of the MOG in all the groups (1 to 8) was […].
The test concentrations of laquinimod were prepared in purified water. For high dose (25.0 mg/kg) 2.5 mg/mL stock solution was prepared (group 8). The 2.5 mg/mL stock solution was diluted 1:5 and 1:10 to yield 0.5 and 0.25 mg/mL for dose levels of 5.0 mg/kg for groups 5 and 7 and 2.5 mg/kg respectively for groups #4 and 6. Laquinimod was administered daily from the initiation of the study, to the respective groups by gavage at a volume of 0.2 ml/mouse.
as §2
Clinical signs Scoring of EAE clinical signs was started from Day 10 post EAE induction and was continued daily until Day 30. The clinical signs were recorded according to a grading system described in the Table 2 above.
as §3, with “All mice having” for “mice having”, “have score 5 for three” for “have score 4 for three”, “given score 6 on the” for “given score 5 on the”, “or died (6) was carried” for “or died was carried”

[4] = laquinimod 5 mg/kg/day gavage, alone or + GA-blocking 12.5 mg/kg day 0
[5] = laquinimod 25 mg/kg/day gavage, alone or + GA-blocking 12.5 mg/kg day 0
[6] = LAQ 2.5 mg/kg oral daily 30 d, alone or + GA 250 mg/kg s.c. daily 10 d
[7] = LAQ 2.5 mg/kg oral daily 30 d, alone or + GA 250 mg/kg s.c. daily 10 d, listed as LAQ
[8] = LAQ 5.0 mg/kg oral daily 30 d, alone or + GA 250 mg/kg s.c. daily 10 d

SMILES: CCN(C(=O)c1c(O)c2c(Cl)cccc2n(C)c1=O)c1ccccc1 [laquinimod]
- inhibition at 5 mg/kg ([1]; Mus musculus, po, 0 h, laquinimod 5 mg/kg/day gavage, alone or + GA-blocking 12.5 mg/kg day 0, read-out: % inhibition compared to control (GMS)): 31.2%
- inhibition at 25 mg/kg ([1]; Mus musculus, po, 0 h, laquinimod 25 mg/kg/day gavage, alone or + GA-blocking 12.5 mg/kg day 0, read-out: % inhibition compared to control (GMS)): 54.4%
- Group Mean Score [1, 4]: 2.25**
- Incidence [1, 4]: 13/13
- Mean Disease Duration [1, 4]: 13.2*** days
- Mean Maximal Score [1, 4]: 4.38*
- Mean Onset [1, 4]: 16.8* days
- Group Mean Score [1, 5]: 1.49***
- Incidence [1, 5]: 14/15
- Mean Disease Duration [1, 5]: 10.0*** days
- Mean Maximal Score [1, 5]: 3.27***
- Mean Onset [1, 5]: 20.3** days
- Mortality ([1]; mouse, in vivo): 0/15 and 2/13
- % Inhibition 1 (incidence) ([2]; LAQ 5.0 mg/kg oral daily 30 d): 52.9%
- GMS % Inhibition 3 ([2]; LAQ 5.0 mg/kg oral daily 30 d): 71.4%
- GMS value ([2]; LAQ 5.0 mg/kg oral daily 30 d): 0.6 ± 0.9
- Incidence ([2]; LAQ 5.0 mg/kg oral daily 30 d): 8/10
- MMS % Inhibition 2 ([2]; LAQ 5.0 mg/kg oral daily 30 d): 55.9%
- MMS value ([2]; LAQ 5.0 mg/kg oral daily 30 d): 1.5 ± 1.8
- Mean Duration ([2]; LAQ 5.0 mg/kg oral daily 30 d): 4.2 ± 6.0 days
- Mean Onset ([2]; LAQ 5.0 mg/kg oral daily 30 d): 26.9 ± 6.0 days
- Mortality ([2]; LAQ 5.0 mg/kg oral daily 30 d): 0/20
- % Inhibition 1 (incidence) ([2]; LAQ 25.0 mg/kg oral daily 30 d): 88.2%
- GMS % Inhibition 3 ([2]; LAQ 25.0 mg/kg oral daily 30 d): 95.2%
- GMS value ([2]; LAQ 25.0 mg/kg oral daily 30 d): 0.1 ± 0.4
- Incidence ([2]; LAQ 25.0 mg/kg oral daily 30 d): 2/20
- MMS % Inhibition 2 ([2]; LAQ 25.0 mg/kg oral daily 30 d): 91.2%
- MMS value ([2]; LAQ 25.0 mg/kg oral daily 30 d): 0.3 ± 1.0
- Mean Duration ([2]; LAQ 25.0 mg/kg oral daily 30 d): 0.8 ± 2.6 days
- Mean Onset ([2]; LAQ 25.0 mg/kg oral daily 30 d): 30.3 ± 2.6 days
- Mortality ([2]; LAQ 25.0 mg/kg oral daily 30 d): 0/20
- % Inhibition 1 (incidence) [3, 6]: 57.1%
- GMS value [3, 6]: 0.5 ± 0.8
- Incidence [3, 6]: 6/15
- MMS % Inhibition 2 [3, 6]: 55.9%
- MMS value [3, 6]: 1.5 ± 2.1
- Mean Duration [3, 6]: 0.8 ± 2.6 days
- Mean Onset [3, 6]: 30.3 ± 2.6 days
- Mortality [3, 6]: One
- GMS % Inhibition 3 [3, 7]: 76.2%
- Mortality [3, 7]: 1/15
- GMS % Inhibition 3 ([3]; LAQ 2.5 mg/kg oral daily 30 d, alone or + GA 250 mg/kg s.c. daily 10 d, listed as LQ): 76.2%
- % Inhibition 1 (incidence) [3, 8]: 64.3%
- GMS value [3, 8]: 0.6 ± 0.7
- Incidence [3, 8]: 9/15
- MMS % Inhibition 2 [3, 8]: 38.2%
- MMS value [3, 8]: 2.1 ± 1.8
- Mean Duration [3, 8]: 5.7 ± 6.6 days
- Mean Onset [3, 8]: 25.1 ± 6.8 days
- Mortality [3, 8]: 0/15
- % Inhibition 1 (incidence) ([3]; LAQ 25.0 mg/kg oral daily 30 d): 100.0%
- GMS % Inhibition 3 ([3]; LAQ 25.0 mg/kg oral daily 30 d): 100.0%
- GMS value ([3]; LAQ 25.0 mg/kg oral daily 30 d): 0.0 ± 0.0
- Incidence ([3]; LAQ 25.0 mg/kg oral daily 30 d): 0/15
- MMS % Inhibition 2 ([3]; LAQ 25.0 mg/kg oral daily 30 d): 100.00%
- MMS value ([3]; LAQ 25.0 mg/kg oral daily 30 d): 0.0 ± 0.0
- Mean Duration ([3]; LAQ 25.0 mg/kg oral daily 30 d): 31.0 ± 0.0 days
- Mean Onset ([3]; LAQ 25.0 mg/kg oral daily 30 d): 0.0 ± 0.0 days
- Mortality ([3]; LAQ 25.0 mg/kg oral daily 30 d): 0/15
- GMS % Inhibition 3 ([3]; LAQ 25.0 mg/kg oral daily 30 d, listed as LAQ): 100.00%
- GMS % Inhibition 3 ([3]; LAQ 25.0 mg/kg oral daily 30 d, listed as LQ): 100%
